Patent publication US20170002313A1, “COMPOSITIONS AND METHODS OF OBTAINING AND USING ENDODERM AND HEPATOCYTE CELLS” (Genentech Inc., priority 2012, published 2017)

Columns and labels:
[1] = system: human embryonic stem cells (hESC); experiment: Endoderm differentiation of hESC with small-molecule inhibitors, flow cytometry of endoderm markers; type: cell-based
From the text: A variety of cell-type specific markers were used to monitor the differentiation of stem cells into endoderm cells in the flow cytometry, fluorescence imaging, and immunoassay experiments described below. To detect endoderm conversion, hESC-derived cell samples were stained for the expression of SOX17, FoxA2, and CXCR4 proteins. SOX17, FoxA2, and CXCR4 are proteins that are expressed by endoderm cells but not by stem cells. To detect stem cells, cell samples were stained for the expression of OCT4, a protein expressed by stem cells but not by endoderm cells.
Undifferentiated human embryonic stem cells (hES) were maintained at a density of 40,000 cells/cm^2 on qualified matrigel (BD, #354277) in TesR™2 medium ([…]™ Technologies #05860). Cultures were manually passaged twice a week. To prepare for endoderm differentiation, hESC cells were passaged into TesR™2 medium overnight. The following day, the TesR™2 medium was replaced with basal medium (DMEM/F12+Glutamax (Invitrogen, #10565) supplemented with B27 (Invitrogen, #17504-044)). No human embryos were destroyed in the process of obtaining stem cells for these methods. Furthermore, the plurality of stem cells is not obtained by the prior destruction of human embryos.
Unless otherwise noted, basal medium was supplemented with […] human Activin A (Peprotech, #120-14). When indicated, basal medium was also supplemented with an effective amount of, e.g., a growth factor such as […] human Wnt3a (R&D, #5036-WN-010), an isoform-specific P13K inhibitor or an mTOR inhibitor. […]
To prepare the cells for flow cytometry, hESC-derived cells grown under endoderm differentiation conditions were dissociated using Accutase (Innovative Cell technologies, #AT-104). Briefly, the cells were washed once in PBS, incubated with Accutase for 10 minutes at room temperature, pelleted, and washed in cold PBS. The Accutase-dissociated hESC-derived cell samples were stained with anti-CXC4 antibody, anti-SOX17 antibody, or anti-FoxA2 antibody. Additional cell samples were stained with isotype control antibodies (e.g., IgG1 or IgG2).
The cells that were to be stained with anti-CXCR4 antibody were washed once with cold DPBS and then directly stained with mouse anti-human CD184 (CXCR4)-IgG2-PE (BD, #555974) for one hour at 4° C. The cells that were to be stained with anti-SOX17 antibody or anti-FoxA2 antibody were first fixed for 25 minutes at 4° C. in fixation buffer (BD, #554655) and permeabilized for 30 minutes on ice in Perm Buffer III (BD, #554656). Anti-SOX17 staining was performed using a mouse anti-SOX17 IgG1-PE antibody (BD, #561591) at room temperature for 30 minutes. Anti-FoxA2 staining was performed using a mouse anti-human FoxA2 IgG1 (BD, #561589) under the same conditions. A control sample of cells were fixed as described above and stained with either an anti-IgG1-PE antibody (BD, #554680) at room temperature for 30 minutes or an anti-IgG2-PE antibody (BD, #55574) for one hour at 4° C.
The antibody-stained hESC-derived cells were then analyzed via flow cytometry using a BD LSRFortessa™ cell analyzer. […] Approximately 1×10^6 cells were analyzed per sample.

[2] = system: human embryonic stem cells (hESC); experiment: AlphaLISA of SOX17 and OCT4 in hESC-derived cells; type: cell-based
Experimental: To detect OCT4, the cells were washed three times in PBS and lysed with 50 ul AlphaLISA Lysis Buffer (Perkin Elmer, #AL003C). The lysis buffer was added to each cell sample and mixed with the cells five times. The cell samples were then incubated in a plate shaker at room temperature for 15 minutes. 5 μl of the lysate from each sample was then transferred to a 384 well OptiPlate (Perkin Elmer, #6005629). 5 μl of 10 ug/ml anti-rabbit acceptor bead (Perkin Elmer, #AL104M) and […] of 0.2 nM of rabbit anti-OCT4 antibody (Cell Signaling, #2890) was added to each well and incubated for 2 hours at room temperature. Following the incubation, 5 μl of 0.5 nM mouse anti-OCT4 antibody (BD, #611203) and […] of 0.5 nM biotinylated goat anti-mouse antibody (Invitrogen, #B2763) were added to each well and incubated at room temperature for 2 hours. Following the incubation, […] of streptavidin donor beads (Perkin Elmer, #6760002B) were added to each well and incubated for 30 minutes. The OptiPlates were then analyzed using an Envision Multilabel Plate Reader (Perkin Elmer, #2104-0010). All beads and antibodies were diluted as necessary in IAB Buffer (Perkin Elmer, #AL000C)+50 mM NaCl. Four replicate assays were performed.
To detect SOX17, the cells were washed three times in PBS and lysed with 50 ul Roche Complete Lysis Buffer (Roche, #04719956001). The lysis buffer was added to each cell sample and mixed with the cells five times. The cell samples were then incubated in a plate shaker at room temperature for 15 minutes. 5 μl of the lysate from each sample was then transferred to a 384 well OptiPlate (Perkin Elmer, #6005629). 5 μl of 10 ug/ml anti-rabbit acceptor bead (Perkin Elmer, #AL104M) and […] of 1 nM of rabbit anti-SOX17 antibody (Sigma, #AV33271) was added to each well and incubated for 2 hours at room temperature. Following the incubation, 5 μl of 0.5 nM mouse anti-SOX antibody (Sigma, #SAB3300093) and […] of 0.5 nM biotinylated goat anti-mouse antibody (Invitrogen, #B2763) were added to each well and incubated at room temperature for 2 hours. Following the incubation, […] of streptavidin donor beads (Perkin Elmer, #6760002B) were added to each well and incubated for 30 minutes. The OptiPlates were then analyzed using an Envision Multilabel Plate Reader (Perkin Elmer, #2104-0010). All beads and antibodies were diluted as necessary in IAB Buffer (Perkin Elmer, #AL000C) Four replicate assays were performed.
After a 3-day treatment, cells were harvested and stained with anti-SOX17 antibody as described above in preparation for AlphaLISA analysis.

[3] = biological target: PI3K alpha (Homo sapiens, UniProt P42336); experiment: In vitro kinase profile, PI3K alpha_MTOR score; type: biochemical
Sequence of PI3K alpha (P42336 whole entry, species assumed): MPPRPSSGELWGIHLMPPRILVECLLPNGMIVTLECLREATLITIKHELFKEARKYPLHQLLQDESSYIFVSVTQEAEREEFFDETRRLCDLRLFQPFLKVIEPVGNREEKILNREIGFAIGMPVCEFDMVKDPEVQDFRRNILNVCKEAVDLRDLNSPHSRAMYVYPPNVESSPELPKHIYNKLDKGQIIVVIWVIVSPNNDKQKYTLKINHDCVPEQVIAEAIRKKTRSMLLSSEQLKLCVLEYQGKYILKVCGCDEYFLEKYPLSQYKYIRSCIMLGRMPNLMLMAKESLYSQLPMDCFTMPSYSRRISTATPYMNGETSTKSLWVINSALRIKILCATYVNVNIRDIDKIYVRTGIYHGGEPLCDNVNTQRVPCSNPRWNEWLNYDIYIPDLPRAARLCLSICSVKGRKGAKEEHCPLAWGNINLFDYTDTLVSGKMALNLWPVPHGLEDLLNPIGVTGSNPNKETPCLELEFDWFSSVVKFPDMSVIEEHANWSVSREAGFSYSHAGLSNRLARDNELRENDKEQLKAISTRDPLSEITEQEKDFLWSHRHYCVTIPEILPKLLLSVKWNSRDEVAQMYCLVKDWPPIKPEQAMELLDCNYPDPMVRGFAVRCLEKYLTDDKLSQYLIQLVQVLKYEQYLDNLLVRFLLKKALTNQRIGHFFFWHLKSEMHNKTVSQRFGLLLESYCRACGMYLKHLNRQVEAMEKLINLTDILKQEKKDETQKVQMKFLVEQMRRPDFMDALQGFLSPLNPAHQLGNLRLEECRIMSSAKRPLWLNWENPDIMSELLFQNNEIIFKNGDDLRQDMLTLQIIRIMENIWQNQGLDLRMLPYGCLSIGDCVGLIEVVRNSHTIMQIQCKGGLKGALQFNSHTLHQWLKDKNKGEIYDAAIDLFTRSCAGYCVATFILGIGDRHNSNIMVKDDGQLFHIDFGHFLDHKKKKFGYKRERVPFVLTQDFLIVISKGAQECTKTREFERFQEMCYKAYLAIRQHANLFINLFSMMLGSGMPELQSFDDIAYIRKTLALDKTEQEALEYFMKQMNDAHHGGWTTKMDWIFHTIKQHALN
Sequence of PI3K alpha (P27986 whole entry partner, species assumed): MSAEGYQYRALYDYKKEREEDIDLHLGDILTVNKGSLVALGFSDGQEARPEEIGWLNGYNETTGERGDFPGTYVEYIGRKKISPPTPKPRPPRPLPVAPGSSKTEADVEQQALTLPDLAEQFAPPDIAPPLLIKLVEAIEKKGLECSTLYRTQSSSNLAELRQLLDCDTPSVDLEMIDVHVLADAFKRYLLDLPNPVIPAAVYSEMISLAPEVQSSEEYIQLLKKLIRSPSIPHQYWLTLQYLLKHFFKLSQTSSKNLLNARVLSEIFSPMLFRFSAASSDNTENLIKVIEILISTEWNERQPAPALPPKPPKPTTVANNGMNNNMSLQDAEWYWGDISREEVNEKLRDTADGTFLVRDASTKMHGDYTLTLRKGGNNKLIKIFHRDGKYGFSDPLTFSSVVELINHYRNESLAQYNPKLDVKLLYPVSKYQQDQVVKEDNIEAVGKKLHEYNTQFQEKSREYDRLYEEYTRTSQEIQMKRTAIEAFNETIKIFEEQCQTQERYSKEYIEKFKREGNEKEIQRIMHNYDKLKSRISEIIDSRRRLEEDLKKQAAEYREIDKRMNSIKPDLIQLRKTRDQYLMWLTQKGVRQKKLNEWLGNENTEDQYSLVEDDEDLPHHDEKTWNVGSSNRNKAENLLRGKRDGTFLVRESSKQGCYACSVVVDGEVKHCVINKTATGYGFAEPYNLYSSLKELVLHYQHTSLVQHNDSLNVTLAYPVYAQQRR
Experimental: (§1) The effect of each compound on the PI3K/AKT/MTOR pathway was evaluated in two ways: via a kinase profile (FIG. 23) and via phospho imaging assays (i.e., immunofluorescence assays using antibodies specific for the phosphorylated form of mTOR or AKT). In vitro kinase profiling provided percent inhibition for numerous targets within the PI3K cell signaling pathway, and cell-based imaging assays were performed to directly visualize the effect of each compound on phosphorylated Akt and phosphorylated mTOR in the cell system used for differentiation.
(§2) In column 2 of Table 6, the PI3K alpha_MTOR score reflects the ability of a compound to inhibit the phosphorylation of PI3K alpha and mTOR, where + indicates minimal inhibition, and +++ indicates maximal inhibition. In column 3 of Table 6, the score indicates the ratio of phosphorylated mTOR (as measured by fluorescence intensity) in cells treated with a compound and the phosphorylated mTOR (as measured by fluorescence intensity) in cells that were not treated with the compound. In column 4 of Table 6, the score indicates the ratio of phosphorylated AKT (as measured by fluorescence intensity) in cells treated with a compound and the phosphorylated AKT (as measured by fluorescence intensity) in cells that were not treated with the compound. A reported effect of AKT inhibitors is an increase in phosphorylated AKT.

[4] = biological target: mTOR (Homo sapiens, UniProt P42345); experiment: In vitro kinase profile, PI3K alpha_MTOR score; type: biochemical
Experimental: as §1, §2

[5] = system: phosphorylated mTOR; experiment: Phospho imaging assay (immunofluorescence); type: cell-based, human
Experimental: as §1, §2

[6] = system: human embryonic stem cells (hESC); experiment: Dose response with Activin A for optimal concentration (SOX17, cell death); type: cell-based
Experimental: To facilitate extended characterization, it was necessary to determine the optimal concentration of each of the compounds for use subsequent experiments. The optimal concentration of each compound was determined based on two parameters: highest efficiency of endoderm differentiation and low toxicity. Each compound was tested with Activin A in a dose response manner. The concentration that gave the highest % SOX17 expressing cells at Day 3 without causing more than 30% cell death compared to control was determined for each compound. The yield of differentiation went from 4% to 81% SOX17+ cells at day 3.

[7] = system: Akt; experiment: In vitro kinase profile; type: biochemical
Experimental: as §1

[8] = system: phosphorylated AKT; experiment: Phospho imaging assay (immunofluorescence); type: cell-based, human
Experimental: as §1, §2

[9] = system: hESC-derived cells; experiment: xCELLigence proliferation and viability time course; type: cell-based, human; conditions: 12 days, no medium change; Activin A + 750 nM Compound A, or Activin A + Wnt3a + 5 μM LY294002
Experimental: The hESC-derived cells grown under each condition were assayed for their proliferation and viability once a day for 12 days with no medium change using Roche's xCELLigence System according to standard protocol.
xCELLigence measured proliferation and viability as a function of impedance signal. High impedance signals indicated cell attachment to the surface of the culture dish, which is associated with increased proliferation. In contrast low impedance signals indicated cells' detachment from the surface of the culture dish, which is associated with cell death. […] The experiments whose results are depicted in FIG. 8 were performed in duplicate. Accordingly, there are two curves for each condition.

[10] = system: hESC-derived endoderm cells; experiment: CellTiter-Glo Luminescent Cell Viability Assay; type: cell-based, human; conditions: Activin A + 100 nM to 1.5 μM Compound A, 7 days
From the text: In this assay, metabolically active cells in each sample tested were quantified as a function of ATP levels produced by the sample.

[11] = system: hESC-derived endoderm cells; experiment: Hepatocyte differentiation of endoderm cells, flow cytometry; type: cell-based, human; conditions: hepatoblast medium in the absence of FGF4 and BMP2
Experimental: After 10-day treatment, the endoderm-derived cells were harvested using TrypLE. Briefly, the cells were washed once in PBS, incubated with TrypLE for 5 minutes at 37° C. The incubated cells were then diluted 10-fold with PBS, pelleted, and prepared for further analysis.
Prior to flow cytometry analysis, the Accutase-dissociated endoderm-derived cell samples were stained with an anti-AFP primary antibody followed by a secondary antibody.
The harvested endoderm-derived cells were washed with cold DPBS. […] The cells were washed three more times in permeabilization/wash buffer prior to flow cytometry analysis.
HepG2 cells, which were derived from a well-differentiated hepatocellular carcinoma, were also stained as a positive control. The cells were analyzed via flow cytometry as described above. Approximately 1.5×10^6 cells were analyzed per sample.
Endoderm cells were treated with different combinations of growth factors and tested for their capability to differentiate into hepatocytes. hESC were differentiated into endoderm cells as described above. […] After 10 days of treatment, the endoderm-derived cells were prepared for flow cytometry and imaging analysis as described above.
An additional control sample was prepared in which endoderm cells obtained by culture with Activin A alone were cultured in hepatoblast medium in the absence of any additional growth factors. […]

[12] = Activin A + 750 nM inhibitor, no Wnt3a, 3-day treatment
[13] = time course, Activin A + 750 nM Compound A, no Wnt3a, day 5
[14] = dose response of Compound A with Activin A

## CO[C@H]1C[C@@H]2CC[C@@H](C)[C@@](O)(O2)C(=O)C(=O)N2CCCC[C@H]2C(=O)O[C@H]([C@H](C)C[C@@H]2CC[C@@H](OCCO)[C@H](OC)C2)CC(=O)[C@H](C)/C=C(\C)[C@@H](O)[C@@H](OC)C(=O)[C@H](C)C[C@H](C)/C=C/C=C/C=C/1C [everolimus]
[1]; [12]
  endoderm conversion (SOX17, FoxA2, CXCR4 flow cytometry): higher degree of endoderm conversion
[2]; [12]
  endoderm conversion (SOX17 AlphaLISA): better endoderm conversion than cells cultured in Activin A alone or cells cultured with an Akt inhibitor
[3]
  PI3K alpha_MTOR score: PI3K alpha: PI3K alpha+_MTOR+
[4]
  PI3K alpha_MTOR score: MTOR: PI3K alpha+_MTOR+
[5]; 1 h
  Avg(Avg (Ph MTOR_60m_%C # Spots)): 36.46 %C

## CO[C@@H]1[C@H](N(C)C(=O)c2ccccc2)C[C@H]2O[C@]1(C)n1c3ccccc3c3c4c(c5c6ccccc6n2c5c31)C(=O)NC4 [PKC412]
[4]
  reduction of phosphorylation of mTOR (FIG. 23): potent reduction of phosphorylation
[6]
  toxicity: may be toxic

## COc1ccc(COc2cc3oc(=O)c4cc(C(C)O)ccc4c3cc2OC)cc1 (stereo not drawn) [Palomid 529]
[4]
  reduction of phosphorylation of mTOR (FIG. 23): did not show reduction of phosphorylation of mTOR or Akt
[7]
  reduction of phosphorylation of Akt (FIG. 23): did not show reduction of phosphorylation of mTOR or Akt
[8]
  effect on Akt phosphorylation in cell-based imaging assays: did not exhibit any effects on Akt or mTOR phosphorylation
[5]
  effect on mTOR phosphorylation in cell-based imaging assays: did not exhibit any effects on Akt or mTOR phosphorylation

## CS(=O)(=O)N1CCN(Cc2cc3nc(-c4cccc5[nH]ncc45)nc(N4CCOCC4)c3s2)CC1 [Compound A, 4-[2-(1H-indazol-4-yl)-6-[(4-methylsulfonylpiperazin-1-yl)methyl]thieno[3,2-d]pyrimidin-4-yl]morpholine]
[1]; Activin A + Wnt3a + 500 nM inhibitor, 3-day treatment
  % of hESC-derived cells expressing SOX17: 93.5-93.9%
[1]; dose response, Activin A + 750 nM Compound A, no Wnt3a, 3-day treatment
  % of hESC-derived cells expressing SOX17: 84%
[1]; isoform-specific PI3K inhibitor + Activin A alone, 3-day treatment
  % of hESC-derived cells expressing SOX17: about 77.35%
[1]; [13]
  % of hESC-derived cells expressing CXCR4: 82%
  % of hESC-derived cells expressing FoxA2: 87%
  % of hESC-derived cells expressing SOX17: 91%
[2]; [14]
  OCT4 expression (AlphaLISA): decreases
  SOX17 expression (AlphaLISA): increases with increasing concentrations of Compound A up to 750 nM
[9]
  viability and proliferation (impedance signal): remain viable and proliferative past day 4
[10]
  viability (ATP levels): greater viability at 7 days

## CCNC(=O)Nc1ccc2ncc(Nc3ccc(C)cc3)nc2n1 [Compound D1066]
[4]
  reduction of phosphorylation of mTOR (FIG. 23): did not show reduction of phosphorylation of mTOR or Akt
[7]
  reduction of phosphorylation of Akt (FIG. 23): did not show reduction of phosphorylation of mTOR or Akt
[8]
  effect on Akt phosphorylation in cell-based imaging assays: did not exhibit any effects on Akt or mTOR phosphorylation
[5]
  effect on mTOR phosphorylation in cell-based imaging assays: did not exhibit any effects on Akt or mTOR phosphorylation

B1: Activin A: human Activin A (Peprotech), member of the TGF beta family (protein, UniProt P08476 311-426, looked up)
Inhibin beta A chain: GLECDGKVNICCKKQFFVSFKDIGWNDWIIAPSGYHANYCEGECPSHIAGTSGSSLSFHSTVINHYRMRGHSPFANLKSCCVPTKLRPMSMLYYDDGQNIIKKDIQNMIVEECGCS
modifications: Inhibin beta A chain homodimer
[1]; Activin A alone, 3-day treatment
  % of hESC-derived cells expressing SOX17: 20%
[11]
  % of endoderm-derived cells expressing AFP: 7.65%
